Values of other authors as cited in paper PMC13379419, “Integrating high-fidelity hiPSC-cardiomyocytes with AI-driven modeling for enhanced proarrhythmic risk assessment” (Archives of Toxicology, 2026).

Design: method as in none printed
Details: clinical maximum plasma concentration

Cmax: 3000 nM
SMILES: C=C[C@H]1C[N@@]2CC[C@H]1C[C@@H]2[C@@H](O)c1ccnc2ccc(OC)cc12 [Quinidine]
